According to patent US20250281478A1, “METHODS FOR PREVENTING OR TREATING KIDNEY DISEASES” (JEAMOON BEIJING CO., LTD., priority 2022, published 2025):

What was measured:
Format in all cases: in vivo, C57BL/6N mice
[1] = tested on: mice with adenine-induced renal failure; experiment: Survival of mice with adenine-induced renal failure; details: for Survival Rate (%): started 1 week after start of continued 0.25% adenine diet, end of experiment; for Count after Drug Administration (surviving mice): 12 at enrollment
Method: • 1. Experimental Animals: C57BL/6N, 8 weeks old, SPF grade, male. • 2. Experimental Drugs: • LY2922470 (Shanghai Taoshu Biotechnology Co., Ltd.) • TAK875 (Shanghai Taoshu Biotechnology Co., Ltd.)
1) Preparation of TAK875: A total of 27 mg of TAK875 powder was accurately weighed using an analytical balance and dissolved in 9 mL of 0.8% CMC-Na solution. The mixture was sonicated for 5 minutes to form a 3 mg/mL white suspension. The suspension was stored at 4° C. for later use.
2) Preparation of LY2922470: A total of 80 mg of LY2922470 yellow crystals was added to 200 μL of DMSO to form a clear yellow solution. The solution was gradually added in batches to 10 mL of 0.8% CMC-Na solution. After heating and sonication for 5 hours, an 8 mg/mL white suspension of LY2922470 was obtained. The suspension was stored at 4° C. for later use.
Eight-week-old male C57BL/6N mice were acclimatized for one week and then randomly divided into six groups. Except for the control group, all mice were fed a 0.25% adenine-containing diet for modelling. The control group received a normal diet. The mice had free access to food. One week after model induction, mice in each group were orally administered the corresponding drug once daily in the afternoon, according to their group assignment. The control group and the model group received vehicle under a same condition. During the treatment period, the adenine-containing diet was continued. Mouse survival was monitored until the end of the experiment.

[2] = tested on: mice with sustained adenine-induced renal failure; experiment: Glomerular filtration rate in mice with sustained adenine-induced renal failure (TGFR system); details: 3 weeks continuous 0.25% adenine diet, FIG. 4
Method: • a) Control group: Fed with adenine-free feed; other procedures were the same as those in the model group. • b) Model group: Fed with feed containing 0.25% adenine for modelling. • c) LY-10 mg/kg group: Model+LY2922470 (10 mg/kg, p.o., QD). • d) LY-30 mg/kg group: Model+LY2922470 (30 mg/kg, p.o., QD). • e) LY-60 mg/kg group: Model+LY2922470 (60 mg/kg, p.o., QD). • f) TAK875 group: Model+TAK875 (30 mg/kg, p.o., QD).
Except for the control group, all other mice were fed with a diet containing 0.25% adenine for modelling. The control group was fed with a normal diet. All mice were allowed free access to food. One week after modeling, each group of mice was administered the respective treatment via oral gavage once daily in the afternoon for two consecutive weeks. The control group and the model group received vehicle under a same condition. The adenine-containing diet was continuously administered for modeling throughout the treatment period until the end of the experiment. The physical condition of the mice was monitored, and body weight was measured and recorded weekly. Blood samples were collected from the orbital venous plexus at 1 week (post-modeling) and 3 weeks (after 2 weeks of treatment). Serum was separated for the measurement of serum creatinine (CRE) and blood urea nitrogen (BUN). At the end of the two-week treatment, renal function of each group was assessed using a TGFR renal function monitoring and smart analysis system. After testing, tissues were collected from the mice to confirm the efficacy of the treatment.
Statistical analyses were performed using GraphPad Prism 8.0 software. Continuous data of each group were expressed as mean+SD. One-way ANOVA was used for multi-group comparisons, and Student's t-test was used for comparisons between two groups. A p-value<0.05 was considered statistically significant. For categorical data, chi-square tests were used to compare between groups, with p<0.05 indicating a statistically significant difference.
One week later, LY2922470 or TAK875 was administrated for treatment. […]

[3] = tested on: mice with adenine-induced renal failure; experiment: Renal fibrosis by Masson's trichrome staining in adenine-induced renal failure mice; details: LY2922470 30 mg/kg/day orally for 2 weeks; 3 weeks of modeling; FIG. 6
Method: Mice were modeled and administered drugs as described in Example 3. After two weeks of drug administration, the mice were euthanized, and their kidneys were fixed, sectioned, stained with Masson's trichrome, and analyzed.
Whole-slide scanning was performed using a fully automated digital pathology scanner KF-PRO-120 from Ningbo Jiangfeng Bioinformatics Technology Co., Ltd. Masson-stained images were analyzed using the Area Quantification module in HALO software. The blue staining of collagen fibers was used as the unified criterion for positivity. The images were analyzed, and the percentage of blue-stained collagen fibers in the tissue was calculated.
Statistical analysis was conducted using GraphPad Prism 8.0. Continuous data for each group were expressed as mean+SD. One-way ANOVA was used for multi-group comparisons, and Student's t-test was used for comparisons between two groups. A p-value<0.05 was considered statistically significant. For categorical data, chi-square tests were used for comparisons among groups, and a p-value<0.05 was considered statistically significant.

## CC#C[C@@H](CC(=O)O)c1ccc(OCc2ccc(CN3CCCc4cccc(OC)c43)s2)cc1 [LY2922470]
[1]; LY2922470 10 mg/kg p.o. QD
  Survival Rate (%): 0%
  Count after Drug Administration (surviving mice): 0
[1]; LY2922470 10 mg/kg p.o. QD, deaths began on day 20
  Day of adenine feeding by which all mice had died: ≤ 27 days
[1]; LY2922470 30 mg/kg p.o. QD, 30 mg/kg
  Survival Rate (%): 100%
[1]; LY2922470 30 mg/kg p.o. QD, listed as LY
  Survival Rate (%): 100%
[1]; LY2922470 30 mg/kg p.o. QD
  Count after Drug Administration (surviving mice): 12
[1]; LY2922470 30 mg/kg vs TAK875 30 mg/kg
  Final survival rate relative to the TAK875 group: double
[1]; LY2922470 60 mg/kg p.o. QD, listed as LY
  Survival Rate (%): 50%
[1]; LY2922470 60 mg/kg p.o. QD
  Count after Drug Administration (surviving mice): 6
[1]; from Table 1 survival data, p.o.
  Dose with optimal effect (survival): 30 mg/kg/day
[2]; LY2922470 30 mg/kg p.o. QD for 2 weeks
  Renal function (GFR) improvement among the doses: most significant improvement
[2]; LY2922470 at different doses (10, 30, 60 mg/kg p.o. QD) for 2 weeks
  Renal function (GFR) compared with the model group: improved
[3]
  Collagen deposition (Masson staining): decreased
  Degree of renal fibrosis (Masson staining): alleviated
  Extracellular matrix (ECM) accumulation: inhibited
